Measurements: US10202378B2, “Therapeutic compounds and uses thereof” (GENENTECH, INC., priority 2015, dated 2019)

What was measured:
[1] = biological target: TAF1-BD1 (Homo sapiens, UniProt P21675); test: TAF1-BD1 TR-FRET Binding Assay; settings: read-out: TAF1-BD1 HTRF IC50
Protocol: IC50 Measurements for Inhibitors Using TAF1-BD1 TR-FRET Binding Assay
His/Flag epitope tagged TAF1-BD11381-1497 was cloned, expressed, and purified to homogeneity. TAF1-BD binding and inhibition was assessed by monitoring the engagement of a biotinylated small molecule compound 1000 with the target using the TR-FRET assay technology (Perkin-Elmer). Specifically, in a 384 well ProxiPlate, TAF1-BDI (0.08 uM final) in 50 mM HEPES (pH 7.5; final), 50 mM NaCl (final), 1 mM TCEP (final), 0.1 mg/mL BSA (final), and 0.069 mM Brij-35 (final) was added either in the presence of DMSO (final 0.2% DMSO) or compound dilution series in DMSO. After a 10 minute incubation at room temperature, biotin-ligand (0.08 uM final) was added. After 10 minutes incubation at room temperature, a mixture Eu-W1024 Anti-6×His antibody (Perkin Elmer ADO 110) and SureLight™ Streptavidin-Allophycocyanin (SA-APC, Perkin Elmer CR130-100) were added to final concentrations of 0.2 nM antibody and 0.05 uM SA-APC, respectively. After forty minutes of equilibration at room temperature, the plates were read on an Envision instrument and IC50s calculated using a four parameter logistic model (XLFIT).

[2] = biological target: TAF1-BD2 (Homo sapiens, UniProt P21675); test: TAF1-BD2 TR-FRET Binding Assay; settings: read-out: TAF1-BD2 HTRF IC50
Protocol: IC50 Measurements for Inhibitors Using TAF1-BD2 TR-FRET Binding Assay
His/Flag epitope tagged TAF1-BD21504-1635 was cloned, expressed, and purified to homogeneity. TAF1-BD2 binding and inhibition was assessed by monitoring the engagement of a biotinylated small molecule compound 1000 with the target using the TR-FRET assay technology (Perkin-Elmer). Specifically, in a 384 well ProxiPlate, TAF1-BD2 (0.012 uM final) in 50 mM HEPES (pH 7.5; final), 50 mM NaCl (final), 1 mM TCEP (final), 0.1 mg/mL BSA (final), and 0.069 mM Brij-35 (final) was added either in the presence of DMSO (final 0.2% DMSO) or compound dilution series in DMSO. After a 10 minute incubation at room temperature, biotin-ligand (0.04 uM final) was added. After 10 minutes incubation at room temperature, a mixture Eu-W1024 Anti-6×His antibody (Perkin Elmer AD0110) and SureLight™ Streptavidin-Allophycocyanin (SA-APC, Perkin Elmer CR130-100) were added to a final concentration of 0.2 nM antibody and 0.025 uM SA-APC, respectively. After forty minutes of equilibration at room temperature, the plates were read on an Envision instrument and IC50s calculated using a four parameter logistic model (XLFIT).

IC50 [1] [nM] | IC50 [2] [nM] | Compound
2930 | 1180 | CCOC(=O)c1c(C)[nH]c2c(=O)n(C)cc(C#CC3(O)CCc4cccnc43)c12 (single isomer, unassigned) [Example 99a, ethyl 4-[2-(7-hydroxy-5,6-dihydrocyclopenta[b]pyridin-7-yl)ethynyl]-2,6-dimethyl-7-oxo-1H-pyrrolo[2,3-c]pyridine-3-carboxylate]
7510 | 912 | CCOC(=O)c1c(C)[nH]c2c(=O)n(C)cc(C#CC(O)(c3cccc(-c4ccccc4C)c3)C(F)(F)F)c12 (centres unmarked) [Example 102, ethyl 2,6-dimethyl-7-oxo-4-[4,4,4-trifluoro-3-hydroxy-3-[3-(o-tolyl)phenyl]but-1-ynyl]-1H-pyrrolo[2,3-c]pyridine-3-carboxylate]
120 | 38.1 | CCOC(=O)c1c(C)[nH]c2c(=O)n(C)cc(C#Cc3cccc(N)c3)c12 [Example 60, ethyl 4-[2-(3-aminophenyl)ethynyl]-2,6-dimethyl-7-oxo-1H-pyrrolo[2,3-c]pyridine-3-carboxylate]
216 | 58 | Cc1[nH]c2c(=O)n(C)cc(C#CC(C)(O)C3CC3)c2c1-c1nnc(C(C)(C)C)o1 (centres unmarked) [Example 187, 3-(5-tert-butyl-1,3,4-oxadiazol-2-yl)-4-(3-cyclopropyl-3-hydroxy-but-1-ynyl)-2,6-dimethyl-1H-pyrrolo[2,3-c]pyridin-7-one]
360 | 29.4 | Cc1[nH]c2c(=O)n(C)cc(C#CC(C)(C)O)c2c1-c1nnc(C(C)C)o1 [Example 195, 4-(3-hydroxy-3-methyl-but-1-ynyl)-3-(5-isopropyl-1,3,4-oxadiazol-2-yl)-2,6-dimethyl-1H-pyrrolo[2,3-c]pyridin-7-one]
3210 | 1200 | Cc1[nH]c2c(=O)n(C)cc(C#CC(O)(c3ccccc3)C(F)(F)F)c2c1C(=O)OC(C)c1ccccc1 (centres unmarked) [Example 104, 1-phenylethyl 2,6-dimethyl-7-oxo-4-(4,4,4-trifluoro-3-hydroxy-3-phenyl-but-1-ynyl)-1H-pyrrolo[2,3-c]pyridine-3-carboxylate]
1310 | 375 | CCOC(=O)c1c(C)[nH]c2c(=O)n(C)cc(C#CC(C)(C)C(=O)N(C)C)c12 [Example 36, ethyl 4-[4-(dimethylamino)-3,3-dimethyl-4-oxo-but-1-ynyl]-2,6-dimethyl-7-oxo-1H-pyrrolo[2,3-c]pyridine-3-carboxylate]
226 | 17 | CCOC(=O)c1c(C)[nH]c2c(=O)n(C)cc(C#CC(O)(c3cccc(-c4cc[nH]n4)c3)C(F)(F)F)c12 (centres unmarked) [Example 44, ethyl 2,6-dimethyl-7-oxo-4-[4,4,4-trifluoro-3-hydroxy-3-[3-(1H-pyrazol-3-yl)phenyl]but-1-ynyl]-1H-pyrrolo[2,3-c]pyridine-3-carboxylate]
> 20000 | 181 | C=CCCn1cc(C#CC(C)(O)CC#N)c2c(C(=O)OCC)c(C)[nH]c2c1=O (centres unmarked) [Example 72, ethyl 6-but-3-enyl-4-(4-cyano-3-hydroxy-3-methyl-but-1-ynyl)-2-methyl-7-oxo-1H-pyrrolo[2,3-c]pyridine-3-carboxylate]
616 | 38.5 | CCOC(=O)c1c(C)[nH]c2c(=O)n(C)cc(C#CC(C)(C)O)c12 [Example 78, ethyl 4-(3-hydroxy-3-methyl-but-1-ynyl)-2,6-dimethyl-7-oxo-1H-pyrrolo[2,3-c]pyridine-3-carboxylate]
7850 | 425 | CCOC(=O)c1c(C)[nH]c2c(=O)n(C)cc(C#CC3(O)CCN(CC)CC3)c12 [Example 8, ethyl 4-[2-(1-ethyl-4-hydroxy-4-piperidyl)ethynyl]-2,6-dimethyl-7-oxo-1H-pyrrolo[2,3-c]pyridine-3-carboxylate]
1280 | 312 | C=CCCn1cc(C#CC(C)(C)C(N)=O)c2c(C(=O)OCC)c(C)[nH]c2c1=O [Example 48, ethyl 4-(4-amino-3,3-dimethyl-4-oxo-but-1-ynyl)-6-but-3-enyl-2-methyl-7-oxo-1H-pyrrolo[2,3-c]pyridine-3-carboxylate]
634 | 87.3 | CCOC(=O)c1c(C)[nH]c2c(=O)n(C)cc(C#CC3(O)COC3)c12 [Example 30, ethyl 4-[2-(3-hydroxyoxetan-3-yl)ethynyl]-2,6-dimethyl-7-oxo-1H-pyrrolo[2,3-c]pyridine-3-carboxylate]
288 | 43.2 | CCCCC(C)(C)OC(=O)c1c(C)[nH]c2c(=O)n(C)cc(C#CC(C)(C)O)c12 [Example 146, 1,1-dimethylpentyl 4-(3-hydroxy-3-methyl-but-1-ynyl)-2,6-dimethyl-7-oxo-1H-pyrrolo[2,3-c]pyridine-3-carboxylate]
515 | 82.3 | CCOC(=O)c1c(C)[nH]c2c(=O)n(C)cc(C#CC(C)(O)C(C)C)c12 (centres unmarked) [Example 70, ethyl 4-(3-hydroxy-3,4-dimethyl-pent-1-ynyl)-2,6-dimethyl-7-oxo-1H-pyrrolo[2,3-c]pyridine-3-carboxylate]
502 | 160 | CCOC(=O)c1c(C)[nH]c2c(=O)n(C)cc(C#C[C@@](C)(O)c3nnc(C)o3)c12 [Example 64, ethyl 4-[(3R)-3-hydroxy-3-(5-methyl-1,3,4-oxadiazol-2-yl)but-1-ynyl]-2,6-dimethyl-7-oxo-1H-pyrrolo[2,3-c]pyridine-3-carboxylate]
139 | 100 | CCOC(=O)c1c(C)[nH]c2c(=O)n(C)cc(C#CC(C)(O)CC#N)c12 (centres unmarked) [Example 35, ethyl 4-(4-cyano-3-hydroxy-3-methyl-but-1-ynyl)-2,6-dimethyl-7-oxo-1H-pyrrolo[2,3-c]pyridine-3-carboxylate]
434 | 379 | CCOC(=O)c1c(C)[nH]c2c(=O)n(C)cc(C#CC3(C)COC3)c12 [Example 13, ethyl 2,6-dimethyl-4-[2-(3-methyloxetan-3-yl)ethynyl]-7-oxo-1H-pyrrolo[2,3-c]pyridine-3-carboxylate]
8350 | 1630 | CCOC(=O)c1c(C)[nH]c2c(=O)n(C)cc(C#C[C@](C)(O)c3ncccn3)c12 [Example 5, ethyl 4-[(3S)-3-hydroxy-3-pyrimidin-2-yl-but-1-ynyl]-2,6-dimethyl-7-oxo-1H-pyrrolo[2,3-c]pyridine-3-carboxylate]
244 | 69.1 | Cc1cc([C@](C)(O)C#Cc2cn(C)c(=O)c3[nH]c(C)c(-c4nnc(C(C)C)o4)c23)no1 [Example 194, 4-[(3R)-3-hydroxy-3-(5-methylisoxazol-3-yl)but-1-ynyl]-3-(5-isopropyl-1,3,4-oxadiazol-2-yl)-2,6-dimethyl-1H-pyrrolo[2,3-c]pyridin-7-one]

Compound | IC50 [1] [nM] | IC50 [2] [nM]
CCNC(=O)c1c(C)[nH]c2c(=O)n(C)cc(C#CC(C)(C)O)c12 [Example 168, N-ethyl-4-(3-hydroxy-3-methyl-but-1-ynyl)-2,6-dimethyl-7-oxo-1H-pyrrolo[2,3-c]pyridine-3-carboxamide] | 5790 | 1630
CCOC(=O)c1c(C2CC2)[nH]c2c(=O)n(C)cc(C#CC(C)(C)O)c12 [Example 207, ethyl 2-cyclopropyl-4-(3-hydroxy-3-methyl-but-1-ynyl)-6-methyl-7-oxo-1H-pyrrolo[2,3-c]pyridine-3-carboxylate] | 957 | 353
